Data taken from paper PMC4559964, “Cytotoxicity of selected Cameroonian medicinal plants and Nauclea pobeguinii towards multi-factorial drug-resistant cancer cells” (BMC Complementary and Alternative Medicine, 2015).
Where two headings read alike, the source gives them in different places.

How the values were obtained:
[1] = system: breast cancer MDA-MB-231-pcDNA3 cells; experiment: Resazurin reduction assay, cytotoxicity on MDA-MB231; format: cell-based; conditions: read-out: IC50 values of compounds / doxorubicin
Method: (§1) The cell lines used in the present work, their origins and their treatments were previously reported. They include drug-sensitive leukemia CCRF-CEM cells, its multidrug-resistant subline CEM/ADR5000 cells, breast cancer MDA-MB-231-pcDNA3 cells, its resistant subline MDA-MB-231-BCRP clone 23) cells, colon HCT116 (p53^+/+) cancer cells, its knockout clones HCT116 (p53^−/−), glioblastoma U87MG cells, its resistant subline U87MG.ΔEGFR cells and normal AML12 hepatocytes. […] Breast cancer cells, transduced with control vector (MDA-MB-231-pcDNA3) or with cDNA for the breast cancer resistance protein BCRP (MDA-MB-231-BCRP clone 23), were maintained under standard conditions as described above for CCRF-CEM cells. Human wild-type HCT116 (p53^+/+) colon cancer cells as well as knockout clones HCT116 (p53^−/−) derived by homologous recombination were a generous gift from Dr. B. Vogelstein and H. Hermeking (Howard Hughes Medical Institute, Baltimore, MD). Human glioblastoma multiforme U87MG cells (non-transduced) and U87MG cell line transduced with an expression vector harboring an epidermal growth factor receptor (EGFR) gene with a genomic deletion of exons 2 through 7 (U87MG.ΔEGFR) were kindly provided by Dr. W. K. Cavenee (Ludwig Institute for Cancer Research, San Diego, CA). MDA-MB-231-BCRP, U87MG.ΔEGFR and HCT116 (p53^−/−) were maintained in DMEM medium containing 10 % FBS (Invitrogen) and 1 % penicillin (100 U/mL)-streptomycin (100 μg/mL) (Invitrogen) and were continuously treated with 800 ng/mL and 400 μg/mL geneticin, respectively. Normal AML12 heptocytes were obtained from the American Type Culture Collection (ATCC, USA). The above medium without geneticin was used to maintain MDA-MB-231, U87MG, HCT116 (p53^+/+) and AML12 cell lines. The cells were passaged twice weekly. All experiments were performed with cells in the logarithmic growth phase.
(§2) The cytotoxicity of the tested samples was performed by resazurin reduction assay as we previously described. Briefly, adherent cells at 1 × 10^4 cells were allowed to attach overnight and were then treated with different concentrations of the studied samples. For suspension cells, aliquots of 2 × 10^4 cells per well were seeded in 96-well-plates in a final volume of 200 μL. […] After 72 h incubation and resazurin (Sigma-Aldrich, Schnelldorf, Germany) staining, fluorescence was measured on an Infinite M2000 Pro™ plate reader (Tecan, Crailsheim, Germany) using an excitation wavelength of 544 nm and an emission wavelength of 590 nm. Each assay was done at least two times, with six replicates each. IC50 values represent the sample concentration required to inhibit 50 % of cell proliferation and were calculated from a calibration curve by linear regression using Microsoft Excel.

[2] = system: glioblastoma multiforme U87MG cells; experiment: Resazurin reduction assay, cytotoxicity on U87MG; format: cell-based; conditions: Homo sapiens, U-87 MG, 72 h, read-out: IC50 values of compounds / doxorubicin
Method: as §1, §2

[3] = system: multidrug-resistant leukemia CEM/ADR5000 cells; experiment: Resazurin reduction assay, cytotoxicity on CEM/ADR5000; format: cell-based; conditions: for IC50: Homo sapiens, read-out: IC50 values of compounds / doxorubicin; for degree of resistance: ratio IC50 CEM/ADR5000 / IC50 CCRF-CEM
Method: as §1, §2

[4] = system: drug-sensitive leukemia CCRF-CEM cells; experiment: Resazurin reduction assay, cytotoxicity on CCRF-CEM; format: cell-based; conditions: Homo sapiens, 72 h, read-out: IC50 values of compounds / doxorubicin
Method: as §1, §2

[5] = system: normal AML12 hepatocytes; experiment: Resazurin reduction assay, cytotoxicity on normal AML12 hepatocytes; format: cell-based; conditions: Mus musculus, read-out: IC50 values of compounds / doxorubicin
Method: as §1, §2

[6] = system: HCT116 (p53−/−) colon cancer cells; experiment: Resazurin reduction assay, cytotoxicity on HCT116 (p53-/-); format: cell-based, human; conditions: for IC50: Homo sapiens, read-out: IC50 values of compounds / doxorubicin; for degree of resistance: ratio IC50 HCT116 (p53−/−) / IC50 HCT116 (p53+/+)
Method: (§3) The cell lines used in the present work, their origins and their treatments were previously reported. […] Human wild-type HCT116 (p53^+/+) colon cancer cells as well as knockout clones HCT116 (p53^-/-) derived by homologous recombination were a generous gift from Dr. B. […] (Howard Hughes Medical Institute, Baltimore, MD). Human glioblastoma multiforme U87MG cells (non-transduced) and U87MG cell line transduced with an expression vector harboring an epidermal growth factor receptor (EGFR) gene with a genomic deletion of exons 2 through 7 (U87MG.ΔEGFR) were kindly provided by Dr. W. K. Cavenee (Ludwig Institute for Cancer Research, San Diego, CA). MDA-MB-231-BCRP, U87MG.ΔEGFR and HCT116 (p53^-/-) were maintained in DMEM medium containing 10 % FBS (Invitrogen) and 1 % penicillin (100 U/mL)-streptomycin (100 μg/mL) (Invitrogen) and were continuously treated with 800 ng/mL and 400 μg/mL geneticin, respectively. Normal AML12 heptocytes were obtained from the American Type Culture Collection (ATCC, USA). The above medium without geneticin was used to maintain MDA-MB-231, U87MG, HCT116 (p53^+/+) and AML12 cell lines. The cells were passaged twice weekly. All experiments were performed with cells in the logarithmic growth phase. […] Briefly, adherent cells at 1 × 10^4 cells were allowed to attach overnight and were then treated with different concentrations of the studied samples. For suspension cells, aliquots of 2 × 10^4 cells per well were seeded in 96-well-plates in a final volume of 200 μL. […] After 72 h incubation and resazurin (Sigma-Aldrich, Schnelldorf, Germany) staining, fluorescence was measured on an Infinite […]TM plate reader (Tecan, Crailsheim, Germany) using an excitation wavelength of 544 nm and an emission wavelength of 590 nm. Each assay was done at least two times, with six replicates each.

[7] = system: HCT116 (p53+/+) colon cancer cells; experiment: Resazurin reduction assay, cytotoxicity on HCT116 (p53+/+); format: cell-based; conditions: Homo sapiens, read-out: IC50 values of compounds / doxorubicin
Method: as §1, §2

[8] = system: U87MG.ΔEGFR cells; experiment: Resazurin reduction assay, cytotoxicity on U87MG.ΔEGFR; format: cell-based, human; conditions: for IC50: Homo sapiens, 72 h, read-out: IC50 values of compounds / doxorubicin; for degree of resistance: ratio IC50 U87MG.ΔEGFR / IC50 U87MG
Method: as §1, §2

[9] = system: MDA-MB-231-BCRP clone 23 cells; experiment: Resazurin reduction assay, cytotoxicity on MDA-MB231/BCRP; format: cell-based; conditions: for IC50: MDA-MB-231/BCRP, 72 h, mean ± SD; for degree of resistance: ratio IC50 MDA-MB231/BCRP / IC50 MDA-MB231
Method: as §3

[10] = system: eight tested cancer cell lines; experiment: Resazurin reduction assay, summary over the panel of tested cell lines; format: cell-based
Method: as §1, §2

[11] = system: leukemia CCRF-CEM cells; experiment: Preliminary cytotoxicity study at a single concentration on CCRF-CEM; format: cell-based; conditions: doxorubicin 10 μM, positive control
Method: Briefly, adherent cells at 1 × 10^4 cells were allowed to attach overnight and were then treated with different concentrations of the studied samples. For suspension cells, aliquots of 2 × 10^4 cells per well were seeded in 96-well-plates in a final volume of 200 μL. […] Each assay was done at least two times, with six replicates each.

[12] = Homo sapiens, MDA-MB-231, 72 h, MDA-MB231, 72 h, mean ± SD
[13] = HCT-116, HCT116 (p53−/−), 72 h, mean ± SD
[14] = HCT-116, HCT116 (p53+/+), 72 h, mean ± SD
[15] = MDA-MB231/BCRP, read-out: IC50 values of compounds / doxorubicin
[16] = all eight tested cancer cell lines, read-out: IC50 over all tested cell lines
[17] = read-out: IC50 values of compounds / doxorubicin, MDA-MB231/BCRP

Row | SMILES | IC50 [1, 12] [µM] | IC50 ([2]; U87MG, mean ± SD) [µM] | IC50 ([3]; CEM/ADR5000, 72 h, mean ± SD) [µM] | IC50 ([4]; mean ± SD) [µM] | IC50 ([5]; AML12 normal hepatocytes, 72 h) [µM] | IC50 [6, 13] [µM] | IC50 [7, 14] [µM] | IC50 ([8]; U87MG.ΔEGFR, mean ± SD) [µM] | IC50 [9, 15] [µM] | IC50 [10, 16] [µM] | degree of resistance [3] | degree of resistance [6] | degree of resistance [8] | degree of resistance [9] | further results
1 | CC(=O)O[C@H]1CC[C@]2(C)[C@H]3C(=O)C=C4[C@@H]5[C@@H](C)[C@H](C)CC[C@]5(C)CC[C@@]4(C)[C@]3(C)CC[C@H]2C1(C)C [Compound 1, 3-acetoxy-11-oxo-urs-12-ene] | > 82.9 | > 82.9 | > 82.9 | > 82.9 | > 82.9 | > 82.9 | > 82.9 | > 82.9 | > 82.9 | > 82.9 | – | – | – | – | –
2 | O=C(O)/C=C/c1ccc(O)cc1 [Compound 2, p-coumaric acid] | > 244 | > 244 | > 244 | > 244 | > 244 | > 244 | > 244 | > 244 | – | > 244 | – | – | – | – | IC50 [9, 17]: > 244 µM
3 | COC(=O)CC(O)(CC(=O)OC)C(=O)OC [Compound 3, citric acid trimethyl ester] | > 171 | > 171 | > 171 | > 171 | > 171 | > 171 | > 171 | > 171 | > 171 | > 171 | – | – | – | – | –
4 | Oc1ccc(/C=C/c2cc(O)cc(O)c2)cc1 [Compound 4, resveratrol] | < 23 | 76.6 ± 4.92 | 57.4 ± 3.67 | 28.2 ± 1.32 | > 175 | > 175 | 73.7 ± 5.67 | 28.4 ± 2.06 | – | – | 2.04 | > 2.38 | 0.37 | – | IC50 ([1]; MDA-MB231, 72 h, mean ± SD): 19.9 ± 1.45 µM; IC50 ([10]; seven out of eight cell lines, read-out: IC50): < 175 µM
5 | OC[C@H]1O[C@@H](Oc2cc(O)cc(/C=C/c3ccc(O)cc3)c2)[C@H](O)[C@@H](O)[C@@H]1O [Compound 5, resveratrol β-D-glucopyranoside] | 97.6 ± 7.6 | 55.6 ± 3.73 | 39.9 ± 2.91 | 25.1 ± 2.48 | > 103 | 47 ± 4.94 | 63.8 ± 4.61 | 47.6 ± 3.29 | – | < 100 | 1.59 | 0.74 | 0.86 | 0.98 | IC50 [9, 17]: 95.6 ± 8.17 µM
6 | C=C[C@H]1[C@H](O[C@@H]2O[C@H](CO)[C@@H](O)[C@H](O)[C@H]2O)OC=C2C(=O)N3CCc4c([nH]c5ccccc45)[C@@H]3C[C@H]21 [Compound 6, strictosamide] | – | – | – | – | – | – | – | – | 78.3 ± 6.22 | – | > 1.04 | – | – | < 0.97 | IC50 ([1]; Homo sapiens, MDA-MB-231, 72 h): > 80.3 µM; IC50 [2]: > 80.3 µM; IC50 ([3]; ADR5000, 72 h): > 80.3 µM; IC50 [4]: 77.1 ± 5.87 µM; IC50 ([5]; AML12, 72 h): > 80.3 µM; IC50 ([6]; HCT-116, 72 h): > 80.3 µM; IC50 ([7]; HCT-116, 72 h): > 80.3 µM; IC50 [8]: > 80.3 µM; IC50 ([10]; read-out: IC50): < 80.3 µM
7 | COc1cccc2c1C(=O)c1c(O)c3c(c(O)c1C2=O)C[C@@](O)(C(=O)CO)C[C@@H]3O[C@H]1C[C@H](N)[C@H](O)[C@H](C)O1 [doxorubicin, Doxorubicin, reference compound] | – | 1.06 ± 0.15 | – | 0.2 ± 0.06 | > 73.6 | – | – | 6.11 ± 0.57 | – | – | 975.60 | 2.88 | 5.76 | 7.12 | IC50 ([1]; Homo sapiens, MDA-MB-231, MDA-MB231, 72 h, mean ± SD): 1.1 ± 0.28 µM; IC50 ([6]; HCT-116, 72 h): 4.06 ± 0.07 µM; IC50 ([7]; HCT-116, 72 h): 1.41 ± 0.29 µM; Growth percentage of CCRF-CEM leukemia cells [11]: 13.6%
